US20250145589A1, “PYRIDINE DERIVATIVE AND USE THEREOF” (SICHUAN HUIYU PHARMACEUTICAL CO., LTD., priority 2021, published 2025)
Read-outs that look alike come from different tables or passages of the source.

Tests used:
[1] = target: PI3Kα (Homo sapiens (Human), UniProt P42336); assay: Inhibition of PI3Kα efficacy assay (ADP-Glo kinase assay); assay type: biochemical; details: read-out: PI3Kα inhibitory activity (IC50)
Procedure, shortened: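 Eight five-fold dilutions of compound (2 mM DMSO stock) tested; kinase reaction with PI and ATP ran 60 min at RT, followed by ADP-Glo and detection reagent steps of 40 min each. Four-parameter logistic fitting gave IC50 values.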

[2] = target: PI3Kδ (Homo sapiens (Human), UniProt O00329); assay: Inhibition of PI3Kδ efficacy assay (ADP-Glo kinase assay); assay type: biochemical; details: read-out: PI3Kδ inhibitory activity (IC50)
PI3Kδ, sequence (O00329 whole entry): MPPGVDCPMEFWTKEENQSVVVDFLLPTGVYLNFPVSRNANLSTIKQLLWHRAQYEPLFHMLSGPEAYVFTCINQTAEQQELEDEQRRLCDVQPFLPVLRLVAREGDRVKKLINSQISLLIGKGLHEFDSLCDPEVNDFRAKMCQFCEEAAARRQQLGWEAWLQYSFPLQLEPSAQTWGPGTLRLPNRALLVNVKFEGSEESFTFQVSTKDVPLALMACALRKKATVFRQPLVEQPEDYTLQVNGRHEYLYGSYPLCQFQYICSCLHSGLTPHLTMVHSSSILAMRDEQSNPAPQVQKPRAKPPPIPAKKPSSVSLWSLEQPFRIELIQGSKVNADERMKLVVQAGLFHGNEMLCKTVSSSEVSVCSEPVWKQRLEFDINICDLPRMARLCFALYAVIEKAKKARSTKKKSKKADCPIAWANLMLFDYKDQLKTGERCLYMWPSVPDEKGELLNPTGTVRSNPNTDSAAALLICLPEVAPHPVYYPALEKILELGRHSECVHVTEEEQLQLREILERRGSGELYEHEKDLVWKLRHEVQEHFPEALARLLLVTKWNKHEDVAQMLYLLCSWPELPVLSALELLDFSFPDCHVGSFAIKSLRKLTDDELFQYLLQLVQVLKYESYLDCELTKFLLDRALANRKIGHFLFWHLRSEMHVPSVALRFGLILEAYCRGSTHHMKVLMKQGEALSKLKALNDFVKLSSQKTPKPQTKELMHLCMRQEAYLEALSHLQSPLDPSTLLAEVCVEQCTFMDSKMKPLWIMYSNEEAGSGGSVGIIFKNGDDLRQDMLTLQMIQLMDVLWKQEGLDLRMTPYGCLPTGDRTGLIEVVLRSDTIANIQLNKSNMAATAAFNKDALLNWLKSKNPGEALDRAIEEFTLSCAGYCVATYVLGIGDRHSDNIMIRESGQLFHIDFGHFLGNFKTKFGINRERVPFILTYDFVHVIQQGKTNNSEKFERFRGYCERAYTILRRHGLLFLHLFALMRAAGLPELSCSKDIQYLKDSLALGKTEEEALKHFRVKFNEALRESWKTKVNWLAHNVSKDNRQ
PI3Kδ, sequence (P27986 whole entry partner): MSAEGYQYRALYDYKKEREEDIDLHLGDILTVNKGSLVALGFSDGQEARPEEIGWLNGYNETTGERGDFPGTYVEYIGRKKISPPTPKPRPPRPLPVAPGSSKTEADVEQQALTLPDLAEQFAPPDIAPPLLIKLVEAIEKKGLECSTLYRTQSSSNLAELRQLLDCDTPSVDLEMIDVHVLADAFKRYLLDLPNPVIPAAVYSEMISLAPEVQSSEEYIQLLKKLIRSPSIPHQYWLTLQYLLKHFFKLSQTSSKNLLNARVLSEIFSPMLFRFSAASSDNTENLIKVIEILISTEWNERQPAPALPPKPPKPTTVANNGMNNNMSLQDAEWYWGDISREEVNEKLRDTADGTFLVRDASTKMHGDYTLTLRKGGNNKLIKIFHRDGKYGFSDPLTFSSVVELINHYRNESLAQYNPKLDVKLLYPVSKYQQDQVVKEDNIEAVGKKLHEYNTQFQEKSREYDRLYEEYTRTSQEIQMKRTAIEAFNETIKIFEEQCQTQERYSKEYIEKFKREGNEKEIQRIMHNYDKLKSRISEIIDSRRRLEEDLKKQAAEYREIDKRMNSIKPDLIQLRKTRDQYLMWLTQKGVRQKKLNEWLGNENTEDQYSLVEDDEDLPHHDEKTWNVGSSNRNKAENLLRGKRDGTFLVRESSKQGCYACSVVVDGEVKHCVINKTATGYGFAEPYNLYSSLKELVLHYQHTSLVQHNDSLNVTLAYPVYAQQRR
Procedure: Test Example 2: Inhibition of PI3Kδ Efficacy assay The ADP-Glo™ kinase assay was used to assess the inhibition of PI3Kδ with our compounds. The utilized proteins and assay reagents were obtained from the ADP-Glo™ Kinase Assay Kit (Promega). Initially, a 2 mM stock solution of the test compound (dissolved in DMSO) was serially diluted in five-fold concentrations using DMSO to obtain eight working solutions 1 (200×) Subsequently, each of the eight working solutions 1 was further diluted in a 20-fold gradient by adding 5 μL into 95 μL of ddH2O, resulting in eight working solutions 2 (10×). […] Subsequently, 2 μL of 2.5×PI and ATP solution mixture were added to each well, mixed, and incubated at RT for 60 minutes. Then, 5 μL of ADP-Glo (containing 10 mM MgCl2) reagent was added to each well, mixed, and incubated at RT for 40 minutes. Finally, 10 μL of the Kinase Detection Reagent was added to each well, mixed, and incubated at RT for 40 minutes. Luminescence values were recorded using a multi-mode microplate reader with luminescence channel settings, and the inhibitory rate was calculated using the following formula: [formula] Data were analyzed using GraphPad Prism with log(inhibitor) vs. response—Variable Slope(four parameters) fitting calculations for IC50 values.

[3] = test system: NCI-H358 cells (KRAS G12C mutant); assay: NCI-H358 cell proliferation inhibition (CellTiter-Glo); assay type: cell-based; details: Homo sapiens, NCI-H358, 72 h; H358 cells (G12C mutation), 3 days, Table 6; read-out: NCI-H358 (IC50)

PI3Kα, sequence (P42336 whole entry): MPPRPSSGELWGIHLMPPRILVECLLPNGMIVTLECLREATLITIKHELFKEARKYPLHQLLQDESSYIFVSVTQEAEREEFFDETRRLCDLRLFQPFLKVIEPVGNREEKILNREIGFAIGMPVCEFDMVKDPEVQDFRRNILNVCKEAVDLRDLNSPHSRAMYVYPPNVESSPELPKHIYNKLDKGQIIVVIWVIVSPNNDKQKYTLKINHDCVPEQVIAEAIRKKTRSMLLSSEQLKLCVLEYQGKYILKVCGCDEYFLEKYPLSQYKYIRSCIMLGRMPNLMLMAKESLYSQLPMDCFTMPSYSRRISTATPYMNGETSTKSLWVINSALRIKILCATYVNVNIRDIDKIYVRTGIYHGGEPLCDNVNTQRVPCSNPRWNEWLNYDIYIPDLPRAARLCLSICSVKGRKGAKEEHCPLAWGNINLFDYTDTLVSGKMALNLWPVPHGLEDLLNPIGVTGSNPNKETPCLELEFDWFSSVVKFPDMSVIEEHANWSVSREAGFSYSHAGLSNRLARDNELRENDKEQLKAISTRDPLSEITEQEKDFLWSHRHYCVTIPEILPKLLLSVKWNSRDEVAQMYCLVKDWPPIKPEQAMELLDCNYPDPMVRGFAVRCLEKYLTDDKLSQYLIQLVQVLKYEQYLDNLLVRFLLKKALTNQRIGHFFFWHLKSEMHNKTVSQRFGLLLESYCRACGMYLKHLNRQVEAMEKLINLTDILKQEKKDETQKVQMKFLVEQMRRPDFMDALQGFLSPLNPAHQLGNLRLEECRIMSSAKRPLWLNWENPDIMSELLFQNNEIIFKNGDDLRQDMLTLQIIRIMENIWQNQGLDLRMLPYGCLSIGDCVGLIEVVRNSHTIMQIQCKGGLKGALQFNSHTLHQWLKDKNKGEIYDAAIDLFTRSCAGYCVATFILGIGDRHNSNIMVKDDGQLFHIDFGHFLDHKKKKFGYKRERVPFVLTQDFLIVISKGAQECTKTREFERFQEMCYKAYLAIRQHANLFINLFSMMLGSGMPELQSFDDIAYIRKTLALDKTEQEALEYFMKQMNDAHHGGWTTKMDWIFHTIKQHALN
PI3Kα, sequence (P27986 whole entry partner): as the sequence (P27986 whole entry partner) above

Row | IC50 ([1]; Table 2) [nM] | IC50 ([2]; Table 2) [nM] | IC50 [3] [nM] | IC50 ([1]; Table 1) [nM] | IC50 ([2]; Table 1) [nM] | Structure (SMILES)
1 | 4.3 | 17.5 | 41.6 | – | – | COc1ncc(-c2ccc3ncnc(N4CCN(C(=O)/C=C/C(F)(F)F)CC4)c3c2)cc1NS(=O)(=O)c1c(F)cccc1F [Example 44, (E)-2,6-difluoro-N-(2-methoxy-5-(4-(4-(4,4,4-trifluorobut-2-enoyl)piperazin-1-yl)quinazolin-6-yl)pyridin-3-yl) benzenesulfonamide]
2 | – | – | 27 | 5.8 | 58.2 | C=CC(=O)N1CCN(c2ncnc3ccc(-c4cnc(OC)c(NS(=O)(=O)c5c(F)cccc5F)c4)cc23)CC1 [Example 21, N-(5-(4-(4-acryloylpiperazin-1-yl)quinazolin-6-yl)-2-methoxypyridin-3-yl)-2,6-difluorobenzenesulfonamide]
3 | – | – | 333 | 12.6 | 68.7 | C=CC(=O)N1CCN(c2ncnc3ccc(-c4cnc(Cl)c(NS(=O)(=O)c5ccc(F)cc5F)c4)cc23)CC1 [Example 33, N-(5-(4-(4-acryloylpiperazin-1-yl)quinazolin-6-yl)-2-chloropyridin-3-yl)-2,4-difluorobenzenesulfonamide]
4 | – | – | 900 | 5.8 | 117 | C=CC(=O)N1CCN(c2ncnc3ccc(-c4cnc(Cl)c(NS(=O)(=O)c5ccc(Cl)s5)c4)cc23)CC1 [Example 35, N-(5-(4-(4-acryloylpiperazin-1-yl)quinazolin-6-yl)-2-chloropyridin-3-yl)-5-chlorothiophene-2-sulfonamide]
5 | 2.8 | 38.6 | 164 | – | – | C=C(F)C(=O)N1CCN(c2ncnc3ccc(-c4cnc(OC)c(NS(=O)(=O)c5c(F)cccc5F)c4)cc23)[C@@H](C)C1 [Example 45, (S)-2,6-difluoro-N-(5-(4-(4-(2-fluoroacryloyl)-2-methylpiperazin-1-yl)quinazolin-6-yl)-2-methoxypyridin-3-yl) benzenesulfonamide]
6 | 1.4 | 28.5 | 34.6 | – | – | C=CC(=O)N1CCN(c2ncnc3ccc(-c4cnc(OC)c(NS(=O)(=O)c5ccc(F)cc5F)c4)cc23)C[C@@H]1CC#N [Example 114, (S)-N-(5-(4-(4-acryloyl-3-(cyanomethyl)piperazin-1-yl)quinazolin-6-yl)-2-methoxypyridin-3-yl)-2,4-difluorobenzenesulfonamide]
7 | 5 | 23.9 | 72.2 | – | – | COc1ncc(-c2ccc3ncnc(N4CCN(C(=O)/C=C/C(C)=O)[C@@H](CC#N)C4)c3c2)cc1NS(=O)(=O)c1ccc(F)cc1F [Example 112, (S,E)-N-(5-(4-(3-(cyanomethyl)-4-(4-oxopent-2-enoyl)piperazin-1-yl)quinazolin-6-yl)-2-methoxypyridin-3-yl)-2,4-difluorobenzenesulfonamide]
8 | 1.4 | 27.7 | 861 | – | – | C=C(F)C(=O)N1C[C@H](C)N(c2ncnc3ccc(-c4cnc(OC)c(NS(=O)(=O)c5ccc(F)cc5F)c4)cc23)C[C@H]1C [Example 68, 2,4-difluoro-N-(5-(4-((2S,5R)-4-(2-fluoroacryloyl)-2,5-dimethyl-piperazin-1-yl)quinazolin-6-yl)-2-methoxy-pyridin-3-yl) benzene-sulfonamide]
9 | 1.2 | 43.5 | 39.5 | – | – | C=CC(=O)N1CC(N2CCN(c3ncnc4ccc(-c5cnc(OC)c(NS(=O)(=O)c6ccc(F)cc6F)c5)cc34)CC2)C1 [Example 55, N-(5-(4-(4-(1-acryloylazetidin-3-yl)piperazin-1-yl)quinazolin-6-yl)-2-methoxypyridin-3-yl)-2,4-difluorobenzene-sulfonamide]
10 | 2.8 | 11.8 | 67.9 | – | – | C=CC(=O)N1CCN(c2ncnc3ccc(-c4cnc(OC)c(NS(=O)(=O)c5ccc(F)cn5)c4)cc23)CC1 [Example 119, N-(5-(4-(4-acryloylpiperazin-1-yl)quinazolin-6-yl)-2-methoxypyridin-3-yl)-5-fluoropyridine-2-sulfonamide]
11 | 3.9 | 13.5 | 48.2 | – | – | C=C(F)C(=O)N1CC2(CCN(c3ncnc4ccc(-c5cnc(OC)c(NS(=O)(=O)c6ccc(F)cc6F)c5)cc34)C2)C1 [Example 60, 2,4-difluoro-N-(5-(4-(2-(2-fluoroacryloyl)-2,6-diazaspiro[3.4]octan-6-yl)quinazolin-6-yl)-2-methoxy-pyridin-3-yl) benzene-sulfonamide]
12 | 3.9 | 53 | 25.1 | – | – | C=C(COC)C(=O)N1CCN(c2ncnc3ccc(-c4cnc(OC)c(NS(=O)(=O)c5ccc(F)cc5F)c4)cc23)CC1 [Example 65, 2,4-difluoro-N-(2-methoxy-5-(4-(4-(2-(methoxy-methyl)acryloyl)piperazin-1-yl)quinazolin-6-yl)pyridin-3-yl) benzene-sulfonamide]
13 | 126 | 794 | 405 | – | – | CC(=O)/C=C/C(=O)N1CCN(c2ncnc3ccc(-c4cnc(OC5CCCC5)c(NS(=O)(=O)c5ccc(F)cc5F)c4)cc23)CC1 [Example 107, (E)-N-(2-(cyclopentyloxy)-5-(4-(4-(4-oxopent-2-enoyl)piperazin-1-yl)quinazolin-6-yl)pyridin-3-yl)-2,4-difluorobenzenesulfonamide]
14 | 2.5 | 12.9 | 27.9 | – | – | C=C(F)C(=O)N1CCN(c2ncnc3ccc(-c4cnc(OC)c(NS(=O)(=O)c5c(F)cccc5F)c4)cc23)CC1 [Example 43, 2,6-difluoro-N-(5-(4-(4-(2-fluoroacryloyl)piperazin-1-yl)quinazolin-6-yl)-2-methoxypyridin-3-yl) benzenesulfonamide]
15 | – | – | 142 | 44.6 | 265 | COc1ncc(-c2ccc3ncnc(N4CCN(C(=O)/C=C/C(C)=O)CC4)c3c2)cc1NS(=O)(=O)C1CCCCC1 [Example 26, (E)-N-(2-methoxy-5-(4-(4-(4-oxopent-2-enoyl)piperazin-1-yl)quinazolin-6-yl)pyridin-3-yl)cyclohexanesulfonamide]
16 | 1.9 | 31.7 | 22.2 | – | – | COc1ncc(-c2ccc3ncnc(N4CCN(C(=O)C5OC5C(C)=O)CC4)c3c2)cc1NS(=O)(=O)c1ccc(F)cc1F (stereo not drawn) [Example 127, N-(5-(4-(4-(3-acetyloxirane-2-carbonyl)piperazin-1-yl)quinazolin-6-yl)-2-methoxypyridin-3-yl)-2,4-difluorobenzenesulfonamide]
17 | 0.63 | 13.2 | 52.6 | – | – | C=C(F)C(=O)N1CC2(CCN(c3ncnc4ccc(-c5cnc(OC)c(NS(=O)(=O)c6c(F)cccc6F)c5)cc34)C2)C1 [Example 48, 2,6-difluoro-N-(5-(4-(2-(2-fluoroacryloyl)-2,6-diazaspiro[3.4]octan-6-yl)quinazolin-6-yl)-2-methoxypyridin-3-yl) benzenesulfonamide]
18 | 7.5 | 25.3 | 3420 | – | – | COc1ncc(-c2ccc3ncnc(N4CCN(C(=O)/C=C/P(C)(C)=O)CC4)c3c2)cc1NS(=O)(=O)c1ccc(F)cc1F [Example 76, (E)-N-(5-(4-(4-(3-(dimethylphosphoryl)acryloyl)piperazin-1-yl)quinazolin-6-yl)-2-methoxypyridin-3-yl)-2,4-difluorobenzenesulfonamide]
19 | – | – | 233 | 9.5 | 62.1 | C=CC(=O)N1C[C@H](C)N(c2ncnc3ccc(-c4cnc(OC)c(NS(=O)(=O)c5ccc(F)cc5F)c4)cc23)C[C@H]1C [Example 14, N-(5-(4-((2S,5R)-4-acryloyl-2,5-dimethylpiperazin-1-yl)quinazolin-6-yl)-2-methoxypyridin-3-yl)-2,4-difluorobenzenesulfonamide]
20 | 0.61 | 11.4 | 31.1 | – | – | C=CC(=O)N1CC2(CCN(c3ncnc4ccc(-c5cnc(OC)c(NS(=O)(=O)c6c(F)cccc6F)c5)cc34)CC2)C1 [Example 50, N-(5-(4-(2-acryloyl-2,7-diazaspiro[3.5]nonan-7-yl)quinazolin-6-yl)-2-methoxypyridin-3-yl)-2,6-difluorobenzene-sulfonamide]
21 | – | – | 22 | 4.7 | 57.8 | C=C(F)C(=O)N1CC2(CCN(c3ncnc4ccc(-c5cnc(OC)c(NS(=O)(=O)c6ccc(F)cc6F)c5)cc34)CC2)C1 [Example 19, 2,4-difluoro-N-(5-(4-(2-(2-fluoroacryloyl)-2,7-diazaspiro[3.5]nonan-7-yl)quinazolin-6-yl)-2-methoxypyridin-3-yl)benzenesulfonamide]

Row | Structure (SMILES) | IC50 ([1]; Table 2) [nM] | IC50 ([2]; Table 2) [nM] | IC50 [3] [nM] | IC50 ([1]; Table 1) [nM] | IC50 ([2]; Table 1) [nM]
22 | COc1ncc(-c2ccc3ncnc(N4CCN(C(=O)/C=C/C(C)=O)CC4)c3c2)cc1NS(=O)(=O)c1ccc(F)cn1 [Example 118, (E)-5-fluoro-N-(2-methoxy-5-(4-(4-(4-oxopent-2-enoyl)piperazin-1-yl)quinazolin-6-yl)pyridin-3-yl)pyridine-2-sulfonamide] | 1.9 | 19.7 | 79.2 | – | –
